The results in this text go back to patent publication US11440898B2, “Isoquinoline compounds, methods for their preparation, and therapeutic uses thereof in conditions associated with the alteration of the activity of beta galactosidase” (Minoryx Therapeutics S.L., priority 2016, dated 2022).

The target in this assay is T1, mutated beta-galactosidase (p.R60H canine GLB1) in GM11473 fibroblasts (Canis lupus familiaris, UniProt Q9TRY9, R60H).
T1 construct: host or cells: GM11473 canine GM1 gangliosidosis fibroblasts
T1 sequence (Q9TRY9 30-668 R60H): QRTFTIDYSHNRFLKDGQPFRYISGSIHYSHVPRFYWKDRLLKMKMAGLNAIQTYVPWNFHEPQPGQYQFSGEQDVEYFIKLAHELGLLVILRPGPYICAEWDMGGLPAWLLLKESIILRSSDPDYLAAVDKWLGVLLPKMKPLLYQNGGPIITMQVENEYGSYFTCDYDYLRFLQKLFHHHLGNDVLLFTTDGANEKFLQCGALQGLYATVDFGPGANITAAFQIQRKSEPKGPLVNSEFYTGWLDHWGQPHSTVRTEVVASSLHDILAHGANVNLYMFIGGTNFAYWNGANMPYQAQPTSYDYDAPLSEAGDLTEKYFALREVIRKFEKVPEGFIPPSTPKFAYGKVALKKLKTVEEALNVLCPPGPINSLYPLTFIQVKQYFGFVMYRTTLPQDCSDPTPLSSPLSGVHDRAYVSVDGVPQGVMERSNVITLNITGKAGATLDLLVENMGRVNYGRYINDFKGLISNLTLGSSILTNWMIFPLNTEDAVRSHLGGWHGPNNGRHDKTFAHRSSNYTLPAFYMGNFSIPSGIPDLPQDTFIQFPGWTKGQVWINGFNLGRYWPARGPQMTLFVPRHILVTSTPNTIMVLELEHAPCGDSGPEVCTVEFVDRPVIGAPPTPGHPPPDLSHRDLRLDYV
Nature of the assay: Enhancement of β-galactosidase activity measured in GM1 fibroblasts (GM11473), 4-MU-β-D-galactopyranoside substrate. The following applies: increase in β-galactosidase enzyme activity vs non-treated cells, concentrations between 6 and 50 μM, 4 days incubation. The format is cell-based. On the set-up: key: Increase in comparison with non-treated of >2.5 fold is shown as A; Increase in comparison with non-treated of >1.7-2.5 fold is shown as B; Increase in comparison with non-treated of 1.2-1.7 fold is shown as C; D means that no increase compared with non-treated cells was detected in this method. Here is the method: The capacity of the Compounds of the Disclosure to enhance mutated beta-galactosidase activity levels in GM1 fibroblasts was assayed as follows.
Fibroblasts homozygous for a GM1 gangliosidosis missense mutation (GM11473) (canine fibroblasts homozygous for the GM1 gangliosidosis missense mutation p.R60H equivalent to human p.R59H mutation) were purchased from Coriell Institute for Medical Research (Camden, N.J., USA).
Fibroblasts were seeded at 4×10^4 cells per well in 12-well cell culture plates in Dulbecco's Modified Eagle's Media (DMEM) supplemented with 10% of fetal bovine serum (FBS), 1% penicillin/streptomycin (P/S) (Thermo Fisher Scientific, Waltham, Mass., USA) and incubated at 37° C., 5% CO2 overnight for cell attachment. Subsequently, cells were incubated in the absence or presence of the compounds at the desired concentration for 4 days. After incubation, cells were washed twice with phosphate-buffered saline (“PBS”) and detached using Trypsin-EDTA solution (Sigma Aldrich, St. Louis, Mo., USA) to prepare cell pellets. The pellets were stored at −80° C. until activity assays were performed.
β-Galactosidase activity in cell lysates was measured by using 4-Methylumbelliferyl-β-D-galactopyranoside substrate (Sigma Aldrich, St. Louis, Mo., USA). Briefly, lysates were resuspended in 200 μL of 0.9% NaCl containing 0.01% triton X-100 lysis buffer to promote membrane disruption. The cell suspension was sonicated and centrifuged to remove insoluble materials. Then, lysates were mixed with 4-MU-β-D-galactopyranoside in 100 mM citrate buffer (pH=4) and 100 mM NaCl for 60 min at 37° C. The reaction was terminated by adding 100 mM glycine-NaOH buffer (pH=10.7). The liberated 4-MU was measured on a GloMax Discover plate reader (Promega, Madison, Wis., USA) with excitation at 340 nm and emission at 460 nm. Protein quantification was determined using Pierce BCA Protein Assay Kit (Thermo Fisher Scientific, Waltham, Mass., USA). Measurements were interpolated in a 4-MU standard curve and normalized by protein quantity. Enzyme activities were expressed in treated cells as X-fold increase in comparison with non-treated cells (X=1 represents no enhancement).
The capacity of the Compounds of the Disclosure to produce an increase in β-galactosidase enzyme activity in canine GM1 fibroblasts bearing p.R60H canine GLB1 mutation at concentrations between 6 and 50 μM is denoted as follows: • Increase in comparison with non-treated of >2.5 fold is shown as A. • Increase in comparison with non-treated of >1.7-2.5 fold is shown as B. • Increase in comparison with non-treated of 1.2-1.7 fold is shown as C. • D means that no increase compared with non-treated cells was detected in this method. • ND means “not determined.”
For the compound `O=C(NCc1ccccc1)c1ccc(Nc2nccc3ccc(Cl)cc23)cn1` [Example 29, N-benzyl-5-((7-chloroisoquinolin-1-yl)amino)picolinamide], the “Activity in GM11473 fibroblasts” value is “A (Increase in comparison with non-treated of >2.5 fold is shown as A)”. As to `O=C(NCc1ccccc1)c1cc(Nc2nccc3ccc(Cl)cc23)ccn1` [Example 9, N-benzyl-4-((7-chloroisoquinolin-1-yl)amino)picolinamide], the “Activity in GM11473 fibroblasts” value is recorded as “B (Increase in comparison with non-treated of >1.7-2.5 fold is shown as B)”. For `COc1cccc(CNC(=O)c2cc(Nc3nccc4ccc(Cl)cc34)ccn2)c1` [Example 11, 4-((7-Chloroisoquinolin-1-yl)amino)-N-(3-methoxybenzyl)picolinamide] the value was “B (Increase in comparison with non-treated of >1.7-2.5 fold is shown as B)”; for `COc1ccc(CNC(=O)c2cc(Nc3nccc4ccc(Cl)cc34)ccn2)cc1` [Example 10, 4-((7-Chloroisoquinolin-1-yl)amino)-N-(4-methoxybenzyl)picolinamide], “D”; for `COc1ccc2ccnc(Nc3ccnc(C(=O)NCc4ccccc4)c3)c2c1` [Example 26, N-benzyl-4-((7-methoxyisoquinolin-1-yl)amino)picolinamide], “C (Increase in comparison with non-treated of 1.2-1.7 fold is shown as C)”. Then `O=C(NCc1ccc2c(c1)OCCO2)c1cc(Nc2nccc3ccc(Cl)cc23)ccn1` [Example 8, 4-((7-Chloroisoquinolin-1-yl)amino)-N-((2,3-dihydrobenzo[b][1,4]dioxin-6-yl)methyl)picolinamide], with “B (Increase in comparison with non-treated of >1.7-2.5 fold is shown as B)”.

As for `O=S(=O)(NCc1ccc2c(c1)OCCO2)c1cccc(Nc2nccc3ccc(Cl)cc23)c1` [Example 69, 3-((7-Chloroisoquinolin-1-yl)amino)-N-((2,3-dihydrobenzo[b][1,4]dioxin-6-yl)methyl)benzenesulfonamide], the “Activity in GM11473 fibroblasts” value was “D”. Then `O=C(NCC1CCc2ccccc2C1)c1cc(Nc2nccc3ccc(Cl)cc23)ccn1` (stereo not shown) [Example 20, 4-((7-Chloroisoquinolin-1-yl)amino)-N-((1,2,3,4-tetrahydronaphthalen-2-yl)methyl)picolinamide], with “B (Increase in comparison with non-treated of >1.7-2.5 fold is shown as B)”. `O=C(NCc1ccc2nsnc2c1)c1ccc(Nc2nccc3ccc(Cl)cc23)nc1` [Example 59, N-(benzo[c][1,2,5]thiadiazol-5-ylmethyl)-6-((7-chloroisoquinolin-1-yl)amino)nicotinamide]: the “Activity in GM11473 fibroblasts” value was “C (Increase in comparison with non-treated of 1.2-1.7 fold is shown as C)”. In the case of `COc1ccc2c(c1)CCC(NC(=O)c1ccc(Nc3nccc4ccc(Cl)cc34)cn1)C2` (stereo not shown) [Example 40, 5-((7-Chloroisoquinolin-1-yl)amino)-N-(6-methoxy-1,2,3,4-tetrahydronaphthalen-2-yl)picolinamide], the “Activity in GM11473 fibroblasts” value is listed as “B (Increase in comparison with non-treated of >1.7-2.5 fold is shown as B)”. As for `O=C(NCc1ccc2c(c1)CCCO2)c1ccc(Nc2nccc3ccc(Cl)cc23)nc1` [Example 63, 6-((7-Chloroisoquinolin-1-yl)amino)-N-(chroman-6-ylmethyl)nicotinamide], the “Activity in GM11473 fibroblasts” value was “C (Increase in comparison with non-treated of 1.2-1.7 fold is shown as C)”. For `O=C(NC1CCc2ccccc2C1)c1ccc(Nc2nccc3ccc(Cl)cc23)nc1` (stereo not shown) [Example 60, 6-((7-Chloroisoquinolin-1-yl)amino)-N-(1,2,3,4-tetrahydronaphthalen-2-yl)nicotinamide] the value was “C (Increase in comparison with non-treated of 1.2-1.7 fold is shown as C)”; for `O=C(NCCc1ccc2c(c1)OCCO2)c1cc(Nc2nccc3ccc(Cl)cc23)ccn1` [Example 18, 4-((7-Chloroisoquinolin-1-yl)amino)-N-(2-(2,3-dihydrobenzo[b][1,4]dioxin-6-yl)ethyl)picolinamide], “C (Increase in comparison with non-treated of 1.2-1.7 fold is shown as C)”; for `O=C(NCc1ccc2c(c1)OCCCO2)c1cc(Nc2nccc3ccc(Cl)cc23)ccn1` [Example 15, 4-((7-Chloroisoquinolin-1-yl)amino)-N-((3,4-dihydro-2H-benzo[b][1,4]dioxepin-7-yl)methyl)picolinamide], “D”.

For `COc1ccc(CNC(=O)c2cc(Nc3nccc4ccc(Cl)cc34)ccn2)cc1OC` [Example 12, 4-((7-Chloroisoquinolin-1-yl)amino)-N-(3,4-dimethoxybenzyl)picolinamide], the “Activity in GM11473 fibroblasts” value is on record as “C (Increase in comparison with non-treated of 1.2-1.7 fold is shown as C)”. Then `O=C(NCC(c1ccccn1)N1CCOCC1)c1cccc(Nc2nccc3ccc(Cl)cc23)c1` (stereo not shown) [Example 2, 3-((7-Chloroisoquinolin-1-yl)amino)-N-(2-morpholino-2-(pyridin-2-yl)ethyl)benzamide], with “C (Increase in comparison with non-treated of 1.2-1.7 fold is shown as C)”. Then `O=C(NCc1ccc2c(c1)OCCO2)c1ccc(Nc2nccc3ccc(Cl)cc23)cn1` [Example 28, 5-((7-Chloroisoquinolin-1-yl)amino)-N-((2,3-dihydrobenzo[b][1,4]dioxin-6-yl)methyl)picolinamide], with “B (Increase in comparison with non-treated of >1.7-2.5 fold is shown as B)”; and `COc1ccc2ccnc(Nc3ccc(C(=O)NC4CCc5ccccc5C4)nc3)c2c1` (stereo not shown) [Example 45, 5-((7-Methoxyisoquinolin-1-yl)amino)-N-(1,2,3,4-tetrahydronaphthalen-2-yl)picolinamide], with “C (Increase in comparison with non-treated of 1.2-1.7 fold is shown as C)”. Then `O=C(NCc1ccccc1)c1cccc(Nc2nccc3ccc(Cl)cc23)c1` [Example 4, N-benzyl-3-((7-chloroisoquinolin-1-yl)amino)benzamide], with “D”; and `O=C(NC1CCc2ccccc2C1)c1ccc(Nc2nccc3ccc(Cl)cc23)cn1` (stereo not shown) [Example 34, 5-((7-Chloroisoquinolin-1-yl)amino)-N-(1,2,3,4-tetrahydronaphthalen-2-yl)picolinamide], with “A (Increase in comparison with non-treated of >2.5 fold is shown as A)”. Consider `O=S(=O)(NCC(c1ccccn1)N1CCOCC1)c1ccc(Nc2nccc3ccc(Cl)cc23)cc1` (stereo not shown) [Example 72, 4-((7-Chloroisoquinolin-1-yl)amino)-N-(2-morpholino-2-(pyridin-2-yl)ethyl)benzenesulfonamide], for which the “Activity in GM11473 fibroblasts” value is given as “D”.

Regarding `COc1ccc(CNC(=O)c2ccc(Nc3nccc4ccc(Cl)cc34)cn2)cc1` [Example 30, 5-((7-Chloroisoquinolin-1-yl)amino)-N-(4-methoxybenzyl)picolinamide], the “Activity in GM11473 fibroblasts” value is “B (Increase in comparison with non-treated of >1.7-2.5 fold is shown as B)”.
